Results on three molecules are retold here after ChEMBL document CHEMBL1151694, “Efficient synthesis and biological evaluation of two modafinil analogues” (2008).

For assay [1], the system named is Cortex. The assay can be described thus: Effect on electrically-evoked [3H]5HT […] in Sprague-Dawley rat brain cortical slices administered 15 mins before electrical challenge at 100 uM after 85 mins of superfusion relative to control. Format: functional, tissue-based.
Assay [2] has as its system Cortex. The assay can be described thus: Effect on spontaneous [3H]5HT […] in Sprague-Dawley rat brain cortical slices at 0.1 to 100 uM measured after 45 mins of superfusion. It is filed as functional, tissue-based.
The test system of assay [3] is Cortex. The experiment in a line: Effect on electrically-evoked [3H]5HT […] in Sprague-Dawley rat brain cortical slices administered 15 mins before electrical challenge after 85 mins of superfusion relative to control. Format: functional, tissue-based.
The test system of assay [4] is Cortex. The experiment in a line: Effect on spontaneous [3H]5HT […] in Sprague-Dawley rat brain cortical slices at 0.1 to 30 uM measured after 45 mins of superfusion. It is filed as functional, tissue-based.
The subject of assay [5] is Cortex. The experiment in a line: Effect on electrically-evoked [3H]5HT […] in Sprague-Dawley rat brain cortical slices administered 15 mins before electrical challenge at 30 uM after 85 mins of superfusion relative to control. Format: functional.
For assay [6], the system named is Cortex. The assay can be described thus: Effect on spontaneous [3H]5HT […] in Sprague-Dawley rat brain cortical slices at 1 to 30 uM measured after 45 mins of superfusion. It is filed as functional, tissue-based.

Activity calls are given as the source filed them. The calls are words filed in the database; no cut-off is given here.

On to `NC(=O)CC(=O)C(c1ccccc1)c1ccccc1`, for which the outcome with Cortex [1] was Active. Besides, the result in the assay on Cortex [2] was inactive.

For `CC(C)NC(=O)CC(=O)C(c1ccccc1)c1ccccc1`, in the assay on Cortex [3], the Activity entry is “Dose-dependent effect”. In addition, in the assay with Cortex [4], the outcome was inactive.

In the case of `NC(=O)C[S+]([O-])C(c1ccccc1)c1ccccc1` (configuration not stated) [MODAFINIL], the Activity in the assay with Cortex [5] is 217%; with Cortex [3], “Dose-dependent effect”. In addition, the result in the assay with Cortex [6] was inactive.
